Results reported in ChEMBL document CHEMBL3396972, “Synthesis and biological evaluation of DAPY-DPEs hybrids as non-nucleoside inhibitors of HIV-1 reverse transcriptase” (Bioorg Med Chem, 2015).
pEC50, pIC50: −log10 of the molar value.

Key:
[1] = system: Human immunodeficiency virus 1; assay: Antiviral activity against HIV-1 RES056 harboring reverse transcriptase K103N/Y181C double mutant infected in human MT4 cells assessed as reduction of virus-induced cytopathic effect after 5 days by MTT assay; format: functional, organism-based; settings: Human immunodeficiency virus 1, RES056, MT4, 120 h
[2] = Cytotoxicity against human MT4 cells after 5 days MTT assay; format: cell-based
[3] = system: Human immunodeficiency virus 2; assay: Antiviral activity against wild type HIV-2 ROD infected in human MT4 cells assessed as reduction of virus-induced cytopathic effect after 5 days by MTT assay; format: functional, organism-based; settings: Human immunodeficiency virus 2, ISOLATE ROD, MT4, 120 h
[4] = system: Human immunodeficiency virus 1; assay: Antiviral activity against wild type HIV-1 3B infected in human MT4 cells assessed as reduction of virus-induced cytopathic effect after 5 days by MTT assay; format: functional, organism-based; settings: Human immunodeficiency virus 1, 3B, MT4, 120 h
[5] = target: Human immunodeficiency virus type 1 reverse transcriptase (Human immunodeficiency virus 1, UniProt Q72547); assay: Inhibition of wild type HIV1 p66/p51 reverse transcriptase by spectrofluorometry
[6] = Selectivity index, ratio of CC50 for human MT4 cells to EC50 for wild type HIV-1 3B infected in human MT4 cells; format: toxicity, cell-based; settings: read-out: Ratio CC50/EC50

SMILES	pEC50 [1]	CC50 at 120 h [2]	pEC50 [3]	pEC50 [4]	pIC50 [5]	selectivity ratio [6]
N#Cc1ccc(Nc2nccc(OCC(=O)Nc3ccc(F)cc3)n2)cc1	< 3.46	> 344 µM	< 3.46	< 3.46	–	–
N#Cc1ccc(Nc2nccc(OCC(=O)Nc3ccc(Cl)cc3)n2)cc1	< 3.79	162 µM	3.79	4.72	4.57	8
N#Cc1ccc(Nc2nccc(OCC(=O)Nc3cccc(Cl)c3)n2)cc1	< 3.48	> 329 µM	< 3.48	7.46	6.92	> 9340
N#Cc1ccc(Nc2nccc(OCC(=O)Nc3ccc([N+](=O)[O-])cc3)n2)cc1	< 3.49	> 320 µM	< 3.49	< 3.49	–	–
N#Cc1ccc(NC(=O)COc2ccnc(Nc3ccc(C#N)cc3)n2)cc1	< 3.47	> 338 µM	< 3.47	≤ 4.45	4.62	–
N#Cc1ccc(Nc2nccc(OCC(=O)Nc3ccc(C#N)cc3F)n2)cc1	< 3.49	> 322 µM	< 3.49	< 3.49	–	–
COc1ccc(NC(=O)COc2ccnc(Nc3ccc(C#N)cc3)n2)cc1	< 3.48	> 333 µM	< 3.48	4.31	4.61	> 7
Cc1cc(OCC(=O)Nc2ccc(F)cc2)nc(Nc2ccc(C#N)cc2)n1	< 3.48	> 331 µM	< 3.48	< 3.48	–	–
Cc1cc(OCC(=O)Nc2ccc(Cl)cc2)nc(Nc2ccc(C#N)cc2)n1	5.58	2.63 µM	5.58	< 5.58	–	< 1
Cc1cc(OCC(=O)Nc2ccc(Br)cc2)nc(Nc2ccc(C#N)cc2)n1	–	0.93 µM	6.03	< 6.03	–	< 1
Cc1cc(OCC(=O)Nc2cccc(Cl)c2)nc(Nc2ccc(C#N)cc2)n1	< 4.49	32.1 µM	< 4.49	6.77	6.27	197
Cc1cc(OCC(=O)Nc2ccc([N+](=O)[O-])cc2)nc(Nc2ccc(C#N)cc2)n1	–	> 309 µM	< 3.51	< 3.51	–	–
Cc1cc(OCC(=O)Nc2ccc(C#N)cc2)nc(Nc2ccc(C#N)cc2)n1	–	> 325 µM	< 3.49	< 3.49	–	–
Cc1cc(OCC(=O)Nc2ccc(C#N)cc2F)nc(Nc2ccc(C#N)cc2)n1	–	> 311 µM	< 3.51	< 3.51	–	–
Cc1cnc(Nc2ccc(C#N)cc2)nc1OCC(=O)Nc1ccc(F)cc1	< 3.48	> 331 µM	< 3.48	≤ 4.46	4.72	–
Cc1cnc(Nc2ccc(C#N)cc2)nc1OCC(=O)Nc1ccccc1F	< 3.48	> 331 µM	< 3.48	7.89	7.08	> 25200
Cc1cnc(Nc2ccc(C#N)cc2)nc1OCC(=O)Nc1ccc(Cl)cc1	< 3.50	> 317 µM	< 3.50	< 3.50	–	–
Cc1cnc(Nc2ccc(C#N)cc2)nc1OCC(=O)Nc1cccc(Cl)c1	< 3.84	144 µM	< 3.84	7.30	6.80	2890
Cc1cnc(Nc2ccc(C#N)cc2)nc1OCC(=O)Nc1ccccc1Cl	< 3.71	197 µM	< 3.71	7.77	7.34	11300
Cc1cnc(Nc2ccc(C#N)cc2)nc1OCC(=O)Nc1ccc(Br)cc1	< 4.46	34.7 µM	< 4.46	< 4.46	–	< 1
Cc1cnc(Nc2ccc(C#N)cc2)nc1OCC(=O)Nc1ccc([N+](=O)[O-])cc1	< 4.18	66.3 µM	< 4.18	< 4.18	–	< 1
Cc1cnc(Nc2ccc(C#N)cc2)nc1OCC(=O)Nc1ccc(C#N)cc1	< 4.32	≥ 48.4 µM	< 4.32	5.62	4.75	≥ 20
Cc1cnc(Nc2ccc(C#N)cc2)nc1OCC(=O)Nc1ccc(C#N)cc1F	< 3.51	> 311 µM	< 3.51	5.52	4.92	> 102
CC(C)Nc1cccnc1N1CCN(C(=O)c2cc3cc(NS(C)(=O)=O)ccc3[nH]2)CC1 [DELAVIRDINE]	< 4.36	> 43.8 µM	–	6.19	–	> 67
O=c1[nH]cnc2c1ncn2[C@H]1CC[C@@H](CO)O1 [DIDANOSINE]	–	> 212 µM	–	–	–	> 9
O=C1Nc2ccc(Cl)cc2[C@@](C#CC2CC2)(C(F)(F)F)O1 [EFAVIRENZ]	–	> 6.34 µM	–	8.21	–	–
Cc1cc(C#N)cc(C)c1Oc1nc(Nc2ccc(C#N)cc2)nc(N)c1Br [ETRAVIRINE]	7.89	13.3 µM	< 4.88	8.77	–	7680
Nc1ccn([C@@H]2CS[C@H](CO)O2)c(=O)n1 [LAMIVUDINE]	–	> 87.2 µM	–	–	–	> 39
Cc1ccnc2c1NC(=O)c1cccnc1N2C1CC1 [NEVIRAPINE]	≤ 5.12	> 15 µM	–	–	–	–
Cc1cn([C@H]2C[C@H](N=[N+]=[N-])[C@@H](CO)O2)c(=O)[nH]c1=O [ZIDOVUDINE]	8.00	> 93.5 µM	8.18	–	–	–
